Laboratory results: PMC11930985 (Nature Communications, 2025)
Like-named read-outs stand apart in the source and are kept apart here.

Key:
[1] = test system: AML patients; conditions: cited from earlier work; for Remissions (CR and CRi), patients: patients not eligible for intensive chemotherapy
[2] = test system: AML/MDS patients
Procedure: Safety assessments including standard clinical laboratory safety tests (hematology, biochemistry, coagulation, and urinalysis), physical examinations, vital signs (blood pressure, heart rate, respiration rate and temperature), and ECOG performance status were performed at baseline and throughout the study. Electrocardiograms were obtained at screening, Cycle 1 Day 1–4, 8, and 15, Cycle 2 Day 1, 8 and 15, at Day 1 of each cycle thereafter, (up to and including Cycle 15), and at Final Study Visit. QT prolongation was assessed using the Fridericia correction […] [34]. Severity of QTcF prolongation was defined as follows: Grade 1: maximum prolongation 450–480 ms; Grade 2: maximum prolongation 481-500 ms; Grade 3: ≥501 ms on at least two separate ECGs; Grade 4: ≥501 ms or >60 ms change from baseline, with Torsades de pointes, polymorphic ventricular tachycardia or signs/symptoms of serious arrythmia; Grade 5: Death.
Adverse events (AEs) were monitored starting at study enrolment until 28 days after end of treatment and graded according to the National Cancer Institute Common Terminology Criteria for Adverse Events (NCI-CTCAE) version 4.0. If drug-related toxicities continued beyond the follow-up period, patients were followed until all drug-related toxicities resolved to grade ≤1, stabilized or returned to baseline.

[3] = test system: CYP3A4; design: method as in Investigator's Brochure (IB) version 5.0; conditions: preliminary results; ref Investigator's Brochure (IB) version 5.0; cited from earlier work

In the case of `CC1(C)CCC(CN2CCN(c3ccc(C(=O)NS(=O)(=O)c4ccc(NCC5CCOCC5)c([N+](=O)[O-])c4)c(Oc4cnc5[nH]ccc5c4)c3)CC2)=C(c2ccc(Cl)cc2)C1` [venetoclax], the Response rate ([1]; HMA or LDAC plus venetoclax, venetoclax-naïve R/R-AML) is listed as 31% and the Response rates ([1]; venetoclax added to less-intensive regimens (HMAs or LDAC), frontline) is listed as 60–75%.

For `Nc1ncn([C@@H]2O[C@H](CO)[C@@H](O)[C@H]2O)c(=O)n1` [azacitidine], the “Remissions (CR and CRi), patients” value [1] is given as “less than 35%”.

For `Nc1ncn([C@H]2C[C@H](O)[C@@H](CO)O2)c(=O)n1` [decitabine], the “Remissions (CR and CRi), patients” value [1] is listed as “less than 35%”.

With `Nc1ccn([C@@H]2O[C@H](CO)[C@@H](O)[C@@H]2O)c(=O)n1` [Cytarabine, reference compound] the “Patients with cytarabine dose-reduced” value ([2]; LDAC cohorts) was 4, the “Patients with cytarabine interrupted” value ([2]; human, in vivo) was 8 and the “Patients with cytarabine withdrawn” value ([2]; human, in vivo) was 1. The “Extensive metabolism by CYP3A4” value [3] was “does not”, the Response rate ([1]; R/R-AML) was under 20% and the “Remissions (CR and CRi), patients” value [1] was “less than 35%”.
